From ChEMBL document CHEMBL3046962, “Synthesis of new olefin chalcone derivatives as antitumor, antioxidant and antimicrobial agents” (Med Chem Res, 2012)

Tests used:
Format in all cases: functional
Candida albicans = experiment: Antimicrobial activity against Candida albicans MTCC 3017 at 10 ug after 48 hr by agar disk diffusion method; conditions: MTCC 3017, 48 h, read-out: DIZ
[1] = tested on: Radical scavenging activity; experiment: Antioxidant activity assessed as DPPH radical scavenging activity at 1 mM after 20 min by UV-Visible spectrophotometry
[2] = Antioxidant activity assessed as ferric reducing activity at 1 mM after 5 min by UV-Visible spectrophotometry; set-up: scale not given: the % may be the effect or the level left
[3] = Antioxidant activity assessed as hydroxyl radical scavenging activity at 1 mM after 5 min by UV-Visible spectrophotometry
Staphylococcus aureus = experiment: Antimicrobial activity against Staphylococcus aureus MTCC 96 at 20 ug after 24 hr by agar disk diffusion method; conditions: MTCC 96, 24 h, read-out: DIZ
Proteus vulgaris = experiment: Antimicrobial activity against Proteus vulgaris MTCC 1751 at 20 ug after 24 hr by agar disk diffusion method; conditions: MTCC 1751, 24 h, read-out: DIZ
Escherichia coli = experiment: Antimicrobial activity against Escherichia coli DH5[alpha] at 20 ug after 24 hr by agar disk diffusion method; conditions: read-out: DIZ

OC(Cn1cncn1)(Cn1cncn1)c1ccc(F)cc1F [FLUCONAZOLE]
zone of inhibition at 10 µg/disc (Candida albicans): 6.5 mm

O=C1O[C@H]([C@@H](O)CO)C(O)=C1O
Activity [1]: 95.8% | Activity [2]: 78.2% | Activity [3]: 88.3%

CN[C@@H]1[C@H](O[C@H]2[C@H](O[C@H]3[C@H](O)[C@@H](O)[C@H](N=C(N)N)[C@@H](O)[C@@H]3N=C(N)N)O[C@@H](C)[C@]2(O)C=O)O[C@@H](CO)[C@H](O)[C@H]1O [STREPTOMYCIN]
zone of inhibition at 20 µg/disc (Staphylococcus aureus): 2 mm | zone of inhibition at 20 µg/disc (Proteus vulgaris): 2.4 mm | zone of inhibition at 20 µg/disc (Escherichia coli): 2.5 mm
